Results on 1 compound are retold here after publication PMC6843786, “Temporin-SHa and Its Analogs as Potential Candidates for the Treatment of Helicobacter pylori” (Biomolecules, 2019).

Molecules are shown by their SMILES. Like-named read-outs stand apart in the source and are kept apart here. Non-standard residues stand in square brackets, D forms with d. Residues, ends and D or L forms follow the SMILES beside them.

The subject of data set [1] is H. pylori (ATCC 43504). Nature of the data set: Membrane permeabilization assay (propidium iodide). Conditions: propidium iodide, CTAB 300 µM = 100%. The method, then:
Bacterial membrane permeabilization was evaluated using the cell-impermeable DNA/RNA probe propidium iodide as previously explained. Logarithmic growing bacterial suspension of H. pylori (ATCC 43504) was prepared from overnight bacterial suspension after 1:10 dilution. After 3 h incubation at 37 °C, in microaerophilic condition, bacterial suspensions were centrifuged for 5 min at 3000× g. Cell pellets were then resuspended in sterile PBS at about […]. Propidium iodide (solution at 1 mg/mL, Sigma Aldrich) was then added to the suspension at a final concentration of 60 µM. 100 µL of this suspension were then transferred into 96-well black plates and were exposed to increasing concentrations of peptides obtained by serial dilution (from zero to 100 µM, 1:2 dilution). […] Kinetics of fluorescence variations (excitation at 530 nm and emission at 590 nm) were then recorded over 240 min of incubation at 37 °C in micro-aerobic condition using a microplate reader (Biotek, Synergy Mx). The effect of the peptides on the membrane integrity was expressed in percentage of permeabilization, CTAB at 300 µM being used as positive control giving 100% permeabilization. All experiments were done in triplicate.

For data set [2], the system named is H. pylori (ATCC 43504). The method, then: The bactericidal activity of peptides was assessed using the time kill assay as previously described with some modifications. Briefly, overnight liquid culture of H. pylori (ATCC 43504) was prepared and an optical density measurement (OD600nm) was taken to provide an estimation of cell numbers in the culture. Bacterial suspension was then centrifuged at 3000 rpm for 5 min and the bacterial pellet was then resuspended in sterile PBS pH6 at approximatively 10^7 CFU/mL. The pH of PBS was changed from 7 to 6 with HCl to mimic the micro-environment surrounding H. pylori in the stomach. Indeed, although the lumen of the stomach is around 1–2, H. pylori is able, through the activity of its urease, to create a local micro-environment around it of pH 6 [31]. In addition to PBS pH 6, the time kill assay was also performed in PBS pH 6 containing a mixture of porcine stomach mucins MUC2 and MUC3 (at 1 mg/mL, final concentration) or in the presence of human gastric cells N87 producing human mucus. In that particular case, N87 cells were seeded onto 96-wells plates and left to grow for 48–72 h until they reached confluence. At that time, wells were aspirated and bacterial suspension in PBS pH 6 were added to the wells. In all cases, resuspended bacteria (200 µL) were treated with peptides or the conventional antibiotic amoxicillin at a final concentration corresponding to five times their MIC. Bacteria were then incubated in micro-aerobic conditions at 37 °C using GasPak units. […] The petri dishes were then incubated 16 h at 37 °C in microaerophilic conditions before counting of growing colonies. The number of surviving bacteria was calculated using the number of observed colonies and the dilution factor. The experiment was done in triplicate.

The subject of another data set is human gastric explants. Put plainly: Ex vivo toxicity assay, LDH release from human gastric explants. In kind it is cell-based. Conditions: peptides 100 µM, CTAB 300 µM, % of total release. The method, then:
To further evaluate the innocuity of the peptides, ex vivo experiments were performed using human explants as previously described. Briefly, human gastric tissue samples were obtained from patients undergoing surgery at the Hospital Laveran (Marseille, France), unit of gastrointestinal surgery according to a collaborative clinical transfer project. The procedures were approved by the French ethic committee (CODECOH n° DC-2019-3402). All patients agreed for the use of their tissues for research purposes. Samples were taken from healthy patients during sleeve gastrectomy from macroscopically unaffected area as identified by the surgeons. After resection, the specimens were placed in ice-cold oxygenated sterile DMEM solution containing 1% streptomycin/penicillin solution and 50 μg/mL gentamycin and were directly transferred to the laboratory within 15 min on ice. Gastric tissues were extensively washed and maintained in ice-cold culture media containing 1% streptomycin/penicillin solution and 50 μg/mL gentamycin. Tissues were cleaned from vascular vessels and conjunctive tissue using forceps under binocular microscope. Gastric explants (wet weight of 20–30 mg) were then isolated from the cleaned resections using surgical punch (diameter of 0.5 cm^2). […] Finally, the explants were washed three times with culture media without antibiotics and transferred into 24-well plates before being incubated in RPMI media without fetal bovine serum, antibiotics and phenol red at 37 °C in the 5% CO2 incubator with 100 µM of peptides for 2, 4 or 8 h. Phenol red was omitted from the culture media since it interferes with the lactate dehydrogenase (LDH) assay. The detergent cetyl-trimethylammonium bromide (CTAB) at 300 µM was used as positive control of tissue damages. At the end of the incubation, the explants were collected and washed three times with PBS^++ and were fixed overnight at 4 °C with PFA diluted at 4% in PBS. After that, gastric explants were washed twice with PBS and were included in an inclusion medium (TFM-EMS), in transverse position to allow cutting in the crypt-villosity axis using cryostat (Leica CM3050) (Leica Microsystems, Nanterre, France). Four sections of 5 µm thickness were obtained per explant, each section being separated by 100 µm from the next in order to cover all the tissue. Explants were then stained using hematoxylin and eosin (H&E) staining protocol. Briefly, samples were incubated for 8 min in hematoxylin (Sigma-Aldrich) and then allowed to stain by incubation with water for 2 min. Then explants were incubated for 1 min in eosin (Sigma-Aldrich) and then in water for 1 min. This was followed by incubation of explants with ethanol at concentration of 70% then 95% and finally 100% for 2 min each. After blotting excess ethanol, gastric explants were incubated for 15 min with xylene and mounted with coverslip using Eukitt mounting media (EMS, Hatfield, PA, USA). Finally, explants were left overnight to dry before examination of tissue organization under the microscope (Leitz DMRB microscope (Leïca), equipped with Leïca DFC 450C camera). Quantification of the release of LDH was also used in addition to microscopic observations to evaluate the impact of peptides on human gastric explants. Briefly, after 2, 4 or 8 h of incubation of the explants with the peptides, the supernatants of the wells were collected and stored at -80 °C before the LDH assay. The LDH activity was measured using previously described protocol with minor changes. Briefly, 50 µL of supernatants obtained from explants were mixed with 200 µL of Tris-Lactate buffer (containing Tris HCl at 86 mM, L-Lactate at 56 mM and KCl at 172 mM, pH 9.3, all from Sigma-Aldrich) and 20 µL of NAD (at 172 mM, Sigma-Aldrich) into well of 96-wells plates. Increase in OD339nm was then measured at 30 °C after 0, 1, 5, and 10 min using microplate reader (Synergy Mx, Biotek). […]
(LDH leaks from cells whose membrane has failed.)

For the compound `CC[C@H](C)[C@H](NC(=O)CNC(=O)[C@H](CO)NC(=O)[C@H](CC(C)C)NC(=O)[C@@H](N)Cc1ccccc1)C(=O)N[C@H](C(=O)NCC(=O)N[C@@H](CCSC)C(=O)N[C@@H](CC(C)C)C(=O)N[C@H](C)C(=O)N[C@@H](CCCCN)C(=O)N[C@@H](CC(C)C)C(=O)N[C@@H](Cc1ccccc1)C(N)=O)C(C)C` [NST1, H-Phe^1-Leu^2-Ser^3-Gly^4-Ile^5-Val^6-Gly^7-Met^8-Leu^9-D-Ala^10-Lys^11-Leu^12-Phe^13-NH2] (H-FLSGIVGML[dA]KLF-NH2), in the data set on H. pylori (ATCC 43504) [1], the “membrane permeabilization of H. pylori (ranking in words)” value was “strongest permeabilization”. Also, in the data set with H. pylori (ATCC 43504) [2] (20 min, PBS pH 6, 5-times MIC), the “decrease of the number of CFUs” value is recorded as “three”. Further, the killing in the data set on H. pylori (ATCC 43504) [2] (20 min, PBS pH 6, 5-times MIC) is 99%; in the data set on H. pylori (ATCC 43504) [2] (60 min, presence of mucus (porcine MUC2/MUC3 1 mg/mL or N87 cells), 5-times MIC) it was 91–98%. The compound further yielded a survival with H. pylori (ATCC 43504) [2] (3 h, PBS pH 6, 5-times MIC) of 0%. The LDH release is on record as 8.3% with human gastric explants (2 h), 12.0% in the data set on human gastric explants (4 h) and 25.0% with human gastric explants (8 h).
